Measured values published in patent US20080262097A1, “Formulations” (priority 2005, published 2008).
In brackets after ≈: the same amount, converted by molar mass.

Legend:
S. aureus ATCC 29213 = assay: Time-to-kill (TTK) assay; assay type: cell-based, Staphylococcus aureus; conditions: BP 125 μg/ml and/or TBHQ […]; for CFU/ml 0.5: 0.5 hours; for CFU/ml 1.0: 1 hour
Method: This quantitative assay was designed to assess the time taken for a test compound to kill a test micro-organism.
Samples from an incubated liquid culture containing the relevant test compound and micro-organism were taken at timed intervals and inoculated onto agar plates. The plates were then incubated as described above and subsequently examined visually for growth. The numbers of viable microbial colonies on the plates were counted and converted to colony-forming units per ml (cfu/ml) using the appropriate dilution factor. By way of example, a colony count of 25 colonies from an agar plate carrying 100 μl of inoculum which had been serially diluted to 10^−6 would yield a viable cell count of 25×10 (to correct to 1 ml)×106 which would be equivalent to 2.5×10^8 cfu/ml. These cfu values were then converted into log10 values and plotted graphically against time of sample removal.
At each time point, samples were assessed in triplicate; the final cfu/ml value was an average (mean) of the three readings.
An appropriate concentration of test compound(s) for use in this assay was determined based on previously conducted MIC/FIC assays.
The TTK assay can provide another measure of synergy, as combinations of compounds may interact to kill test micro-organisms more quickly than the individual compounds alone. This would be indicated by a steeper decline in viable bacterial cell counts as compared to those observed for the individual compounds alone.
TTK assays were then conducted, as described above, on samples of BP, TBHQ and a BP/TBHQ mixture, using S. aureus ATCC 29213 as the test organism. The solvents used were DMSO for the BP and ethanol for the TBHQ. The results are shown in Table 3. cfu values were measured at time 0, 0.5 hours and 1 hour.

S. aureus CPHL EMRSA 15 = assay: MIC assay; assay type: cell-based; conditions: Staphylococcus aureus
Method: (§1) Other staphylococcal strains were also tested, as described in Example 5 below. These included certain antibiotic resistant staphylococci, such as the methicillin resistant S. aureus (MRSA) strains EMRSA-15 and EMRSA-16, both available from the Central Public Health Laboratory (CPHL), Colindale, UK. These strains are resistant not only to all beta-lactams but also to a number of other antibiotics in clinical use, making them a serious threat to human health. They are also responsible for the majority (>95%) of hospital-acquired MRSA infections in the UK.
(§2) The staphylococci and enterococci were cultured and maintained on Mueller-Hinton Medium (agar and broth) at pH 7.2; they were incubated aerobically at 37° C. for 24 hours.
(§3) This is a standard international method for quantitatively assessing the antimicrobial activity of a compound in a liquid medium. The method used a 96-well microtitre plate, capable of holding about 200 μl of liquid per well. […] The culture media were as described above for the relevant test organisms.
(§4) The wells were inoculated with a liquid suspension of freshly grown micro-organism and incubated under the conditions described above. After incubation, the microtitre plate was examined visually (with the aid of a light box) for cell pellets in and/or opaque wells, which would indicate microbial growth. The MIC value was recorded as the lowest concentration of test compound required to inhibit microbial growth, ie, the lowest concentration for which the liquid in the well remained clear.
(§5) The assays were conducted in duplicate and included both negative (culture medium only) and positive (culture medium, diluting solvent and inoculum) controls.

S. aureus CPHL EMRSA 16 = assay: MIC assay; assay type: cell-based; conditions: Staphylococcus aureus
Method: as §1, §2, §3, §4, §5

[1] = test system: Staphylococcus warneri ATCC 27836; assay: Disc diffusion assay (DDA); assay type: cell-based; conditions: zone diameter, 200 μg per disc
Method: as §2
(§6) A sterile paper disc was impregnated with a sample of the test compound and a minimum of 30 minutes allowed for the solvents to evaporate as far as possible. The disc was then placed on an agar plate onto which the test micro-organism had been inoculated. The plate was then incubated under the conditions described above, following which it was examined visually for signs of bacterial growth. If the test compound had antimicrobial activity, a circular zone of no growth would be obtained around the disc. The diameter of this zone of “inhibition” was measured using a ProtoCOL™ automated zone sizer (Synbiosis, Cambridge, UK). In general, a greater diameter and/or area of the zone of inhibition indicates a greater antimicrobial activity in the relevant test compound, although other factors such as test compound mobility through the agar gel may also influence the result.
(§7) The area of the zone of inhibition was calculated from the measured zone diameter (D) using the formula π(D/2)^2.

[2] = test system: Staphylococcus capitis ATCC 27840; assay: Disc diffusion assay (DDA); assay type: cell-based; conditions: zone diameter, 200 μg per disc
Method: as §2, §6, §7

[3] = test system: S. saprophyticus NCTC 7292; assay: Disc diffusion assay (DDA); assay type: cell-based; conditions: zone diameter, 200 μg per disc
Method: as §2, §6, §7

[4] = test system: Staphylococcus hominis ATCC 27844; assay: Disc diffusion assay (DDA); assay type: cell-based; conditions: zone diameter, 200 μg per disc
Method: as §2, §6, §7

[5] = test system: Staphylococcus cohnii ATCC 29974; assay: Disc diffusion assay (DDA); assay type: cell-based; conditions: zone diameter, 200 μg per disc
Method: as §2, §6, §7

[6] = test system: Staphylococcus aureus ATCC 12600; assay: Disc diffusion assay (DDA); assay type: cell-based; conditions: zone diameter, 200 μg per disc
Method: as §2, §6, §7

[7] = test system: Staphylococcus simulans ATCC 27848; assay: Disc diffusion assay (DDA); assay type: cell-based; conditions: zone diameter, 200 μg per disc
Method: as §2, §6, §7

[8] = test system: Staphylococcus haemolyticus ATCC 29970; assay: Disc diffusion assay (DDA); assay type: cell-based; conditions: zone diameter, 200 μg per disc
Method: as §2, §6, §7

[9] = test system: Staphylococcus auricularis ATCC 33753; assay: Disc diffusion assay (DDA); assay type: cell-based; conditions: zone diameter, 200 μg per disc
Method: as §2, §6, §7

[10] = test system: S. epidermidis (NCTC 11047); assay: Disc diffusion assay (DDA); assay type: cell-based; conditions: zone diameter, 200 μg per disc
Method: as §2, §6, §7

[11] = test system: Staphylococcus xylosus ATCC 29971; assay: Disc diffusion assay (DDA); assay type: cell-based; conditions: zone diameter, 200 μg per disc
Method: as §2, §6, §7

P. acnes PRP-053 [12] = assay: MIC assay; assay type: cell-based, Propionibacterium acnes; conditions: Cutibacterium acnes, PRP053; P. acnes PRP-053 (resistance Tet/MLS)
Method: (§8) Other propionibacterial strains were also tested, as described in Example 8 below. These included certain antibiotic resistant propionibacteria, such as the two P. acnes strains PRP-010 and PRP-053 which are resistant respectively to macrolides-lincosamides-streptogramins-ketolides (MLSK) and to macrolides-lincosamides-streptogramins (MLS) and tetracycline—in other words, PRP-010 is resistant to erythromycin and clindamycin, and […] to erythromycin, clindamycin and tetracycline.
(§9) The Propionibacterium spp organisms were cultured and maintained on Wilkins-Chalgren Anaerobe Medium (agar and broth) at pH 6.0; cultures were incubated anaerobically at 37° C. for 72 hours.
as §3, §4, §5

P. acnes PRP-010 = assay: Disc diffusion assay (DDA); assay type: cell-based, Propionibacterium acnes; conditions: zone diameter, 200 μg per disc
Method: as §8, §9, §6, §7

P. acnes PRP-053 [13] = assay: Disc diffusion assay (DDA); assay type: cell-based, Propionibacterium acnes; conditions: zone diameter, 200 μg per disc
Method: as §8, §9, §6, §7

SMILES | Time to kill (S. aureus ATCC 29213) | CFU/ml 0.5 (S. aureus ATCC 29213) | CFU/ml 1.0 (S. aureus ATCC 29213) | CFU/ml t = 0 (S. aureus ATCC 29213) | MIC (S. aureus CPHL EMRSA 15) | MIC (S. aureus CPHL EMRSA 16) | DDA [1] | DDA [2] | DDA [3] | DDA [4] | DDA [5] | DDA [6] | DDA [7] | DDA [8] | DDA [9] | DDA [10] | DDA [11] | MIC (P. acnes PRP-053 [12]) | DDA (P. acnes PRP-010) | DDA (P. acnes PRP-053 [13])
O=C(OOC(=O)c1ccccc1)c1ccccc1 [benzoyl peroxide] | >1 h | 6.20 × 10^5 CFU/ml | 3.67 × 10^4 CFU/ml | 7.63 × 10^5 CFU/ml | 125 µg/mL (≈ 516 µM) | 125 µg/mL (≈ 516 µM) | 12.04 mm | 12.46 mm | 11.38 mm | 11.83 mm | 11.51 mm | 11.99 mm | 9.94 mm | 11.10 mm | 21.56 mm | 10.65 mm | 10.99 mm | 31.2 µg/mL (≈ 129 µM) | 30.39 (±0.82) mm | 29.72 (±0.48) mm
CC(C)(C)c1cc(O)ccc1O [TBHQ, t-butyl hydroquinone] | >1 h | 7.40 × 10^5 CFU/ml | 8.47 × 10^5 CFU/ml | 7.63 × 10^5 CFU/ml | 3.9 µg/mL (≈ 23.5 µM) | 3.9 µg/mL (≈ 23.5 µM) | 54.43 mm | 73.90 mm | 41.67 mm | 64.59 mm | 60.40 mm | 49.24 mm | 53.07 mm | 51.08 mm | 80.18 mm | 57.34 mm | 49.72 mm | 3.9 µg/mL (≈ 23.5 µM) | 18.71 (±0.18) mm | 23.49 (±1.44) mm
